Tests used:
NCI/ADR-RES = test: Cytotoxicity against human NCI/ADR-RES cells after 48 hrs by sulforhodamine B assay; assay type: cell-based
SF-539 = test: Cytotoxicity against human SF539 cells after 48 hrs by sulforhodamine B assay; assay type: cell-based; settings: sf-539, 48 h
OVCAR-8 = test: Cytotoxicity against human OVCAR8 cells after 48 hrs by sulforhodamine B assay; assay type: cell-based; settings: ovcar-8, 48 h
RXF 393 = test: Cytotoxicity against human RXF393 cells after 48 hrs by sulforhodamine B assay; assay type: cell-based; settings: rxf 393, 48 h
MDA-MB-435 = test: Cytotoxicity against human MDA-MB-435 cells after 48 hrs by sulforhodamine B assay; assay type: cell-based; settings: mda-mb-435, 48 h
NCI-H522 [1] = test: Cytotoxicity against human NCI-H522 cells after 48 hrs by sulforhodamine B assay; assay type: cell-based; settings: nci-h522, 48 h
OVCAR-5 = test: Growth inhibition of human OVCAR5 cells after 48 hrs by sulforhodamine B assay; assay type: functional; settings: OVCAR-5, 48 h
SNB-75 = test: Growth inhibition of human SNB75 cells after 48 hrs by sulforhodamine B assay; assay type: functional; settings: SNB-75, 48 h
[2] = test system: Receptor-type tyrosine-protein kinase FLT3 (Homo sapiens), P36888 [UNDEFINED MUTATION]; test: Binding affinity to human FLT3 ITD mutant at 10 uM incubated for 1 hr by kinase binding assay relative to untreated control
A549 = test: Cytotoxicity against human A549 cells after 48 hrs by sulforhodamine B assay; assay type: cell-based; settings: a549, 48 h
[3] = molecular target: Casein kinase I isoform gamma-2 (Homo sapiens) (UniProt P78368); test: Binding affinity to human CSNK1G2 at 10 uM incubated for 1 hr by kinase binding assay relative to untreated control
DU-145 = test: Growth inhibition of human DU145 cells after 48 hrs by sulforhodamine B assay; assay type: functional; settings: DU-145, 48 h
HOP-62 = test: Growth inhibition of human HOP62 cells after 48 hrs by sulforhodamine B assay; assay type: functional; settings: HOP-62, 48 h
MDA-MB-468 = test: Cytotoxicity against human MDA-MB-468 cells after 48 hrs by sulforhodamine B assay; assay type: cell-based; settings: mda-mb-468, 48 h
[4] = test system: Mast/stem cell growth factor receptor Kit (Homo sapiens), P10721 [D816H]; test: Inhibition of human KIT D816H using gamma-33P-ATP as substrate assessed as enzyme functional activity at 1 uM by scintillation counting relative to untreated control; set-up: scale not given: the % may be the effect or the level left
UACC-62 = test: Growth inhibition of human UACC62 cells after 48 hrs by sulforhodamine B assay; assay type: functional; settings: UACC-62, 48 h
NCI-H522 [5] = test: Growth inhibition of human NCI-H522 cells after 48 hrs by sulforhodamine B assay; assay type: functional; settings: NCI-H522, 48 h
[6] = molecular target: T1, Receptor-interacting serine/threonine-protein kinase 1 (Homo sapiens) (UniProt Q13546); test: Binding affinity to human RIPK1 at 10 uM incubated for 1 hr by kinase binding assay relative to untreated control
T1 sequence (whole entry): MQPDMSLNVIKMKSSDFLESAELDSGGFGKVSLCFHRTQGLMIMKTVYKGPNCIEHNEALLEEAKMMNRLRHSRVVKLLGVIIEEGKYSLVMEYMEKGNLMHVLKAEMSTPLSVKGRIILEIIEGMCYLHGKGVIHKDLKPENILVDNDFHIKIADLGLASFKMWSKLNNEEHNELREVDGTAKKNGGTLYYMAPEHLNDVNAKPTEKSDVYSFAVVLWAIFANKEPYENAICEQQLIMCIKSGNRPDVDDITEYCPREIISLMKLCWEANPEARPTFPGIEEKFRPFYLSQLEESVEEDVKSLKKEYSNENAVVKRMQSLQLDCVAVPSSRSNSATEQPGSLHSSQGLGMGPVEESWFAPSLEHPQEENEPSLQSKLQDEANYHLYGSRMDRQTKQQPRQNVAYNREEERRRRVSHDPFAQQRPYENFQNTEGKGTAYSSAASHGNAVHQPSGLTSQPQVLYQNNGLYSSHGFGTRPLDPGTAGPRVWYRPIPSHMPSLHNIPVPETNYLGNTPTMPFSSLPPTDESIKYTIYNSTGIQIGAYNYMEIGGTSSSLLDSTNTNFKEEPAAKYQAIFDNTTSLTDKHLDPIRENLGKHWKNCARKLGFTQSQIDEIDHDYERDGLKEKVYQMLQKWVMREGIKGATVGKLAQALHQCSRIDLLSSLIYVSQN

HT-29 = test: Cytotoxicity against human HT-29 cells after 48 hrs by sulforhodamine B assay; assay type: cell-based; settings: ht-29, 48 h
T47D = test: Cytotoxicity against human T47D cells after 48 hrs by sulforhodamine B assay; assay type: cell-based
TK-10 = test: Growth inhibition of human TK10 cells after 48 hrs by sulforhodamine B assay; assay type: functional; settings: TK-10, 48 h
PC-3 = test: Cytotoxicity against human PC3 cells after 48 hrs by sulforhodamine B assay; assay type: cell-based; settings: pc-3, 48 h
NCI-H226 [7] = test: Cytotoxicity against human NCI-H226 cells after 48 hrs by sulforhodamine B assay; assay type: cell-based; settings: nci-h226, 48 h
NCI-H226 [8] = test: Growth inhibition of human NCI-H226 cells after 48 hrs by sulforhodamine B assay; assay type: functional; settings: NCI-H226, 48 h
CAKI-1 = test: Cytotoxicity against human Caki1 cells after 48 hrs by sulforhodamine B assay; assay type: cell-based; settings: caki-1, 48 h
SNB-19 = test: Growth inhibition of human SNB19 cells after 48 hrs by sulforhodamine B assay; assay type: functional; settings: SNB-19, 48 h
NCI-H460 = test: Cytotoxicity against human NCI-H460 cells after 48 hrs by sulforhodamine B assay; assay type: cell-based; settings: nci-h460, 48 h
LOX IMVI = test: Cytotoxicity against human LOXIMVI cells after 48 hrs by sulforhodamine B assay; assay type: cell-based
KM12 = test: Growth inhibition of human KM12 cells after 48 hrs by sulforhodamine B assay; assay type: functional; settings: KM12, 48 h
HCC 2998 = test: Cytotoxicity against human HCC2998 cells after 48 hrs by sulforhodamine B assay; assay type: cell-based; settings: hcc 2998, 48 h
SW-620 = test: Growth inhibition of human SW620 cells after 48 hrs by sulforhodamine B assay; assay type: functional; settings: SW-620, 48 h
HCT-116 = test: Growth inhibition of human HCT116 cells after 48 hrs by sulforhodamine B assay; assay type: functional; settings: HCT-116, 48 h
OVCAR-4 = test: Cytotoxicity against human OVCAR4 cells after 48 hrs by sulforhodamine B assay; assay type: cell-based; settings: ovcar-4, 48 h
BT-549 = test: Cytotoxicity against human BT549 cells after 48 hrs by sulforhodamine B assay; assay type: cell-based; settings: bt-549, 48 h
SF-268 = test: Growth inhibition of human SF268 cells after 48 hrs by sulforhodamine B assay; assay type: functional; settings: SF-268, 48 h
SK-OV-3 = test: Cytotoxicity against human SKOV3 cells after 48 hrs by sulforhodamine B assay; assay type: cell-based; settings: sk-ov-3, 48 h
IGROV-1 = test: Cytotoxicity against human IGROV1 cells after 48 hrs by sulforhodamine B assay; assay type: cell-based; settings: igrov-1, 48 h
SN12C = test: Cytotoxicity against human SN12C cells after 48 hrs by sulforhodamine B assay; assay type: cell-based

Receptor-type tyrosine-protein kinase FLT3 (Homo sapiens), P36888 [UNDEFINED MUTATION], sequence (P36888 whole entry, looked up, stated change not applied): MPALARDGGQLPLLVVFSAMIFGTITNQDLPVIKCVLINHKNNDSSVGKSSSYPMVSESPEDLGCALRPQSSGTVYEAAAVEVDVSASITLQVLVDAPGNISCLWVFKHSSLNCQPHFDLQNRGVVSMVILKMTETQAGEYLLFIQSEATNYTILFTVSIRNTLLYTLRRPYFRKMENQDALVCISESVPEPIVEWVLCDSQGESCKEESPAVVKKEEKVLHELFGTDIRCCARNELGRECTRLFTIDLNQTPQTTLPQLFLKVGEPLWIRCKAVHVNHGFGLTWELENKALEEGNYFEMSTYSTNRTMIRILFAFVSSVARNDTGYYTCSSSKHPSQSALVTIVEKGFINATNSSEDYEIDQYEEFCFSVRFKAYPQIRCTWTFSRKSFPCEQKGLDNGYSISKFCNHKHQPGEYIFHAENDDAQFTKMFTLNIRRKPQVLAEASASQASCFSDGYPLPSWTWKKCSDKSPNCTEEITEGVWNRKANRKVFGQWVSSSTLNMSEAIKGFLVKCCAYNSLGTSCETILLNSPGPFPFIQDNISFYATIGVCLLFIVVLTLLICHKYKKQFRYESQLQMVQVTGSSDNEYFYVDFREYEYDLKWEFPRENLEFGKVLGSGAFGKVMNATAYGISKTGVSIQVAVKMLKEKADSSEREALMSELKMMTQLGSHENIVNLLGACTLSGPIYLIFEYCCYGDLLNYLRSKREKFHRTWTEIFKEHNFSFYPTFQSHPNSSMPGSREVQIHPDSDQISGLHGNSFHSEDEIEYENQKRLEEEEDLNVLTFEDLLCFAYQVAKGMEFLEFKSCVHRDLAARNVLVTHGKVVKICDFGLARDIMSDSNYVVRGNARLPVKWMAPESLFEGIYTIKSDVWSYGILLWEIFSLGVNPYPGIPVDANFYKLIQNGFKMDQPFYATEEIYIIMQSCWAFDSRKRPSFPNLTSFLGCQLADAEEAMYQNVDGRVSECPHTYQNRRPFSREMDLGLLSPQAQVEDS
Casein kinase I isoform gamma-2 (Homo sapiens), sequence (P78368 whole entry, looked up, canonical isoform): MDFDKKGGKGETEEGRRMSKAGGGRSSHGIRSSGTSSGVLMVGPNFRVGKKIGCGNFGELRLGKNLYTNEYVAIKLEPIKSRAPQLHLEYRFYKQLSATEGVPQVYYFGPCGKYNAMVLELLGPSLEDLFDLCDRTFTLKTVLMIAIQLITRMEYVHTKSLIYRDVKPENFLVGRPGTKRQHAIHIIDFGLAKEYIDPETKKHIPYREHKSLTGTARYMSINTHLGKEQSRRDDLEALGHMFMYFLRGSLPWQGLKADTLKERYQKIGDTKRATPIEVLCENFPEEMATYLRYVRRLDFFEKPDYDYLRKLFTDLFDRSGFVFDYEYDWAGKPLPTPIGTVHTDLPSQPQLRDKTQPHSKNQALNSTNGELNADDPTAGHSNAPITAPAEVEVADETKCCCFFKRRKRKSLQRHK
Mast/stem cell growth factor receptor Kit (Homo sapiens), P10721 [D816H], sequence (P10721 whole entry D816H): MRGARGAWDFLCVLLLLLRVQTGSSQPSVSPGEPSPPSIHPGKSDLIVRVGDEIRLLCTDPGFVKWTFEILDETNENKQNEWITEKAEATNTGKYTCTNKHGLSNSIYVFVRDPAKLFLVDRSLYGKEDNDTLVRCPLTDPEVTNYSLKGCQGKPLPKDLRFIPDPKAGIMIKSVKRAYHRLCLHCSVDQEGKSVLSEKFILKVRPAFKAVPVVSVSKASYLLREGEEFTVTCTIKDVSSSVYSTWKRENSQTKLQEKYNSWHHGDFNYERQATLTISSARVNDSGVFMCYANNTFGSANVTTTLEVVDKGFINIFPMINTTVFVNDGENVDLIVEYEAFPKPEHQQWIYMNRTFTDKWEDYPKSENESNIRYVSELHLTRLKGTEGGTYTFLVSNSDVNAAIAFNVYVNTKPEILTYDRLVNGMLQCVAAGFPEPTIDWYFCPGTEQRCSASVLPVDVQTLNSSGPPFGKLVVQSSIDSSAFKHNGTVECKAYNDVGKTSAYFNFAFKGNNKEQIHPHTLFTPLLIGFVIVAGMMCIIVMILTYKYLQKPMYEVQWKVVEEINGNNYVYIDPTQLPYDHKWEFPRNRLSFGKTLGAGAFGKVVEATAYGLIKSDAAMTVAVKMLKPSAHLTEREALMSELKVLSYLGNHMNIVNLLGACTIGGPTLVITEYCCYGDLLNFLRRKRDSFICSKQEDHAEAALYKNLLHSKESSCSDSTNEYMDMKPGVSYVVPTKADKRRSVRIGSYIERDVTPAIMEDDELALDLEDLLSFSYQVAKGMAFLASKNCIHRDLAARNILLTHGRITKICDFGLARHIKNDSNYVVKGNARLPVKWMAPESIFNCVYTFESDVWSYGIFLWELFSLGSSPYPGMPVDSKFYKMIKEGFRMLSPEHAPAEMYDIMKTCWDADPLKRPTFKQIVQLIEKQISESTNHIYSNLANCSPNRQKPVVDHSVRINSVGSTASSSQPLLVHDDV

SMILES	LC50 (NCI/ADR-RES)	LC50 (SF-539)	LC50 (OVCAR-8)	LC50 (RXF 393)	LC50 (MDA-MB-435)	LC50 (NCI-H522 [1])	TGI (OVCAR-5)	TGI (SNB-75)	Activity [2]	LC50 (A549)	Activity [3]	TGI (DU-145)	TGI (HOP-62)	LC50 (MDA-MB-468)	Activity [4]	TGI (UACC-62)	TGI (NCI-H522 [5])	Activity [6]	LC50 (HT-29)	LC50 (T47D)	further results
O=C(c1cccc(Nc2ncnc3ccccc23)c1)N1CCN(c2ncc(Cc3ccccc3)cn2)CC1	> 100 µM	> 100 µM	> 100 µM	> 100 µM	4.57 µM	5.13 µM	5.75 µM	5.89 µM	> 50%	8.13 µM	43%	6.46 µM	3.47 µM	> 100 µM	100%	1.86 µM	2.09 µM	19%	> 100 µM	5.62 µM	TGI (TK-10): 6.17 µM; LC50 (PC-3): > 100 µM; LC50 (NCI-H226 [7]): 7.94 µM; TGI (NCI-H226 [8]): 2.09 µM; LC50 (CAKI-1): 4.47 µM; TGI (SNB-19): 8.91 µM; LC50 (NCI-H460): > 100 µM; LC50 (LOX IMVI): 5.13 µM; TGI (KM12): 2.4 µM; LC50 (HCC 2998): 8.91 µM; TGI (SW-620): 4.27 µM; TGI (HCT-116): 3.55 µM; LC50 (OVCAR-4): 7.59 µM; LC50 (BT-549): 5.37 µM; TGI (SF-268): > 100 µM; LC50 (SK-OV-3): > 100 µM; LC50 (IGROV-1): 5.01 µM; LC50 (SN12C): > 100 µM
c1ccc(Cc2cnc(N3CCN(c4ncnc5ccccc45)CC3)nc2)cc1	66.4 µM	56.1 µM	71.3 µM	> 100 µM	91.4 µM	> 100 µM	69.8 µM	78.2 µM	49%	> 100 µM	> 50%	30.7 µM	51.6 µM	> 100 µM	30%	25.9 µM	40.3 µM	3.5%	79.2 µM	> 100 µM	TGI (TK-10): 60.8 µM; LC50 (PC-3): > 100 µM; LC50 (NCI-H226 [7]): > 100 µM; TGI (NCI-H226 [8]): 48.4 µM; LC50 (CAKI-1): > 100 µM; TGI (SNB-19): > 100 µM; LC50 (NCI-H460): 55 µM; LC50 (LOX IMVI): 44.3 µM; TGI (KM12): 25.1 µM; LC50 (HCC 2998): > 100 µM; TGI (SW-620): 27.7 µM; TGI (HCT-116): 13.2 µM; LC50 (OVCAR-4): > 100 µM; LC50 (BT-549): 43 µM; TGI (SF-268): 57.2 µM; LC50 (SK-OV-3): > 100 µM; LC50 (IGROV-1): > 100 µM; LC50 (SN12C): 54.8 µM
CCc1cnc(N2CCN(C(=O)c3ccc(CNc4ncnc5ccccc45)cc3)CC2)nc1	> 100 µM	> 100 µM	> 100 µM	> 100 µM	> 100 µM	> 100 µM	> 100 µM	58.2 µM	> 50%	> 100 µM	18%	> 100 µM	> 100 µM	> 100 µM	100%	80.9 µM	55.4 µM	> 50%	> 100 µM	> 100 µM	TGI (TK-10): > 100 µM; LC50 (PC-3): > 100 µM; LC50 (NCI-H226 [7]): > 100 µM; TGI (NCI-H226 [8]): > 100 µM; LC50 (CAKI-1): > 100 µM; TGI (SNB-19): > 100 µM; LC50 (NCI-H460): > 100 µM; LC50 (LOX IMVI): 97.3 µM; TGI (KM12): 24.3 µM; LC50 (HCC 2998): > 100 µM; TGI (SW-620): 45.1 µM; TGI (HCT-116): 25 µM; LC50 (OVCAR-4): > 100 µM; LC50 (BT-549): > 100 µM; TGI (SF-268): 100 µM; LC50 (SK-OV-3): > 100 µM; LC50 (IGROV-1): > 100 µM; LC50 (SN12C): > 100 µM

From ChEMBL document CHEMBL1782045, “Discovery, synthesis, and investigation of the antitumor activity of novel piperazinylpyrimidine derivatives” (Eur J Med Chem, 2011)
